ChEMBL document CHEMBL4477225, “Development of a cell viability assay to assess drug metabolite structure-toxicity relationships” (Bioorg Med Chem Lett, 2016)

Experiments:
Details in all cases: recombinant enzyme
[1] = molecular target: T1, Cytochrome P450 2D6 (Homo sapiens, UniProt P10635); test: (§1) Drug activation in human Hep3B cells assessed as human CYP2D6-mediated drug metabolism-induced cytotoxicity measured as decrease in cell viability at 65.4 uM pre-incubated with BSO for 18 hrs followed by incubation with compound for 3 hrs in presence of NADPH measured after 24 hrs in absence of compound, CYP3A4 and NADPH by cell titer-glo luminescence assay relative to BSO alone; type: ADME, cell-based
[2] = molecular target: T2, Cytochrome P450 3A4 (Homo sapiens, UniProt P08684); test: as §1, with “CYP3A4-mediated” for “CYP2D6-mediated”, “56.4” for “65.4”; type: ADME, cell-based
[3] = molecular target: T3, Cytochrome P450 2C9 (Homo sapiens, UniProt P11712); test: as §1, with “CYP2C9-mediated” for “CYP2D6-mediated”, “300” for “65.4”
[4] = molecular target: T1, Cytochrome P450 2D6; test: as §1, with “8.9” for “65.4”; type: ADME, cell-based
[5] = molecular target: T2, Cytochrome P450 3A4; test: as §1, with “CYP3A4-mediated” for “CYP2D6-mediated”, “300” for “65.4”
[6] = molecular target: T2, Cytochrome P450 3A4; test: as §1, with “CYP3A4-mediated” for “CYP2D6-mediated”, “83.8” for “65.4”; type: ADME, cell-based
[7] = molecular target: T1, Cytochrome P450 2D6; test: as §1, with “193.1” for “65.4”; type: ADME, cell-based
[8] = molecular target: T1, Cytochrome P450 2D6; test: as §1, with “17.6” for “65.4”; type: ADME, cell-based
[9] = molecular target: T2, Cytochrome P450 3A4; test: as §1, with “CYP3A4-mediated” for “CYP2D6-mediated”, “69.6” for “65.4”; type: ADME, cell-based
[10] = molecular target: T1, Cytochrome P450 2D6; test: as §1, with “7” for “65.4”; type: ADME, cell-based
[11] = molecular target: T2, Cytochrome P450 3A4; test: as §1, with “CYP3A4-mediated” for “CYP2D6-mediated”, “150.3” for “65.4”; type: ADME, cell-based
[12] = molecular target: T3, Cytochrome P450 2C9; test: as §1, with “CYP2C9-mediated” for “CYP2D6-mediated”, “139.9” for “65.4”; type: ADME, cell-based
[13] = molecular target: T1, Cytochrome P450 2D6; test: as §1, with “132.2” for “65.4”; type: ADME, cell-based
[14] = molecular target: T2, Cytochrome P450 3A4; test: as §1, with “CYP3A4-mediated” for “CYP2D6-mediated”, “131.8” for “65.4”; type: ADME, cell-based
[15] = molecular target: T2, Cytochrome P450 3A4; test: as §1, with “CYP3A4-mediated” for “CYP2D6-mediated”, “242.9” for “65.4”; type: ADME, cell-based
[16] = molecular target: T1, Cytochrome P450 2D6; test: as §1, with “139.7” for “65.4”; type: ADME, cell-based
[17] = molecular target: T2, Cytochrome P450 3A4; test: as §1, with “CYP3A4-mediated” for “CYP2D6-mediated”, “25.3” for “65.4”; type: ADME, cell-based
[18] = molecular target: T1, Cytochrome P450 2D6; test: as §1, with “5.8” for “65.4”; type: ADME, cell-based
[19] = molecular target: T2, Cytochrome P450 3A4; test: as §1, with “CYP3A4-mediated” for “CYP2D6-mediated”, “22.2” for “65.4”; type: ADME, cell-based
[20] = molecular target: T1, Cytochrome P450 2D6; test: as §1, with “264.7” for “65.4”; type: ADME, cell-based
[21] = molecular target: T2, Cytochrome P450 3A4; test: as §1, with “CYP3A4-mediated” for “CYP2D6-mediated”, “90.1” for “65.4”; type: ADME, cell-based
[22] = molecular target: T1, Cytochrome P450 2D6; test: as §1, with “78.6” for “65.4”; type: ADME, cell-based
[23] = molecular target: T1, Cytochrome P450 2D6; test: as §1, with “156.7” for “65.4”; type: ADME, cell-based
[24] = molecular target: T2, Cytochrome P450 3A4; test: as §1, with “CYP3A4-mediated” for “CYP2D6-mediated”, “209.7” for “65.4”; type: ADME, cell-based
[25] = molecular target: T3, Cytochrome P450 2C9; test: as §1, with “CYP2C9-mediated” for “CYP2D6-mediated”, “36.8” for “65.4”; type: ADME, cell-based
[26] = molecular target: T1, Cytochrome P450 2D6; test: as §1, with “44.4” for “65.4”; type: ADME, cell-based
[27] = molecular target: T1, Cytochrome P450 2D6; test: as §1, with “80.4” for “65.4”; type: ADME, cell-based
[28] = molecular target: T3, Cytochrome P450 2C9; test: as §1, with “CYP2C9-mediated” for “CYP2D6-mediated”, “70.1” for “65.4”; type: ADME, cell-based
[29] = molecular target: T2, Cytochrome P450 3A4; test: as §1, with “CYP3A4-mediated” for “CYP2D6-mediated”, “68” for “65.4”; type: ADME, cell-based
[30] = molecular target: T1, Cytochrome P450 2D6; test: as §1, with “3.2” for “65.4”; type: ADME, cell-based
[31] = molecular target: T3, Cytochrome P450 2C9; test: as §1, with “CYP2C9-mediated” for “CYP2D6-mediated”, “12.1” for “65.4”; type: ADME, cell-based
[32] = molecular target: T2, Cytochrome P450 3A4; test: as §1, with “CYP3A4-mediated” for “CYP2D6-mediated”, “65.4 uM” left out; type: ADME, cell-based
[33] = molecular target: T1, Cytochrome P450 2D6; test: as §1, with “12.9” for “65.4”; type: ADME, cell-based
[34] = molecular target: T2, Cytochrome P450 3A4; test: as §1, with “CYP3A4-mediated” for “CYP2D6-mediated”, “8.7” for “65.4”; type: ADME, cell-based
[35] = molecular target: T1, Cytochrome P450 2D6; test: as §1, with “300” for “65.4”
[36] = molecular target: T1, Cytochrome P450 2D6; test: as §1, with “194” for “65.4”; type: ADME, cell-based
[37] = molecular target: T2, Cytochrome P450 3A4; test: as §1, with “CYP3A4-mediated” for “CYP2D6-mediated”, “36.8” for “65.4”; type: ADME, cell-based
[38] = molecular target: T2, Cytochrome P450 3A4; test: as §1, with “CYP3A4-mediated” for “CYP2D6-mediated”, “6.5” for “65.4”; type: ADME, cell-based
[39] = molecular target: T2, Cytochrome P450 3A4; test: as §1, with “CYP3A4-mediated” for “CYP2D6-mediated”, “137.9” for “65.4”; type: ADME, cell-based
[40] = molecular target: T1, Cytochrome P450 2D6; test: as §1, with “114.4” for “65.4”; type: ADME, cell-based

T1 sequence (P10635 whole entry): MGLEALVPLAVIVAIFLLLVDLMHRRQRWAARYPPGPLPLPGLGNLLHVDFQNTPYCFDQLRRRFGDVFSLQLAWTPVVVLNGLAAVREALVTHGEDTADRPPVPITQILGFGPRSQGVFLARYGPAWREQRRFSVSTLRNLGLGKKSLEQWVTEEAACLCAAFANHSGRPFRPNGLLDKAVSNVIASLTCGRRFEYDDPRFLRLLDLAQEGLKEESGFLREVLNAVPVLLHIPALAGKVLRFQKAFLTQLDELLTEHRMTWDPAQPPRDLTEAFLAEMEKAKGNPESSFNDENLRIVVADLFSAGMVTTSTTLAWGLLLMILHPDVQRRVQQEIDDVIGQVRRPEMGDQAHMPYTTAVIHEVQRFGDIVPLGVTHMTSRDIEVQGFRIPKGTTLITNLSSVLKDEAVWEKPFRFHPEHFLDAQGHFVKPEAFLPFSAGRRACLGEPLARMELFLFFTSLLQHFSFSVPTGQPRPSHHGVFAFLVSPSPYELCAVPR
T2 sequence (P08684 whole entry): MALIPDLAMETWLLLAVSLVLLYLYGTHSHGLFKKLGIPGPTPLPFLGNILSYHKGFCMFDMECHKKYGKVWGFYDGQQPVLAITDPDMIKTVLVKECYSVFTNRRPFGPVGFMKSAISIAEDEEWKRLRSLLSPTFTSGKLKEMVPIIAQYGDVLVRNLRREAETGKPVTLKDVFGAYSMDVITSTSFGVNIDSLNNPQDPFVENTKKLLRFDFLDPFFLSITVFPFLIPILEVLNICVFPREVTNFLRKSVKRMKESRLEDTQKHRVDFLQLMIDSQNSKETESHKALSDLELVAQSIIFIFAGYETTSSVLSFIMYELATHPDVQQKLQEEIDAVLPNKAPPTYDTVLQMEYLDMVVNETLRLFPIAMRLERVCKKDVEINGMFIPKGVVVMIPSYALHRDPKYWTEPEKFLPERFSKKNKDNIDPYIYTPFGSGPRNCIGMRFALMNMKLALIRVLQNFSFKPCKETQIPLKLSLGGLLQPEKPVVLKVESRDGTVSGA
T3 sequence (P11712 whole entry): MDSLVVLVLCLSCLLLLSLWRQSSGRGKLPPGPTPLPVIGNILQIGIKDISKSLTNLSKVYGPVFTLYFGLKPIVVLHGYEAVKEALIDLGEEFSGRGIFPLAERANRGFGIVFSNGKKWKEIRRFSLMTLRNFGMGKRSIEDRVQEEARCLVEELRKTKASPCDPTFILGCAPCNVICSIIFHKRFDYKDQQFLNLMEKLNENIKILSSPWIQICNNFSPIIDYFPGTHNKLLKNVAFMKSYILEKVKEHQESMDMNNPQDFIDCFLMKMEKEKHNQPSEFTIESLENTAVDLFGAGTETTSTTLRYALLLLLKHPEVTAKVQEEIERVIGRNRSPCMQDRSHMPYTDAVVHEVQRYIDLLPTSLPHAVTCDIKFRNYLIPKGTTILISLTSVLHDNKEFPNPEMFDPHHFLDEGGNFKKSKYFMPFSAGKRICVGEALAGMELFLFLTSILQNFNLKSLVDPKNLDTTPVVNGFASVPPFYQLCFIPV

Structure (SMILES): CN(C)[C@@H]1C(O)=C(C(N)=O)C(=O)[C@@]2(O)C(O)=C3C(=O)c4c(O)cccc4[C@@](C)(O)[C@H]3C[C@@H]12 [TETRACYCLINE]
- fold change (FC) [1]: 2.5
- fold change (FC) [2]: 2.9

Structure (SMILES): CN(C)CCC(c1ccc(Cl)cc1)c1ccccn1 (stereo not drawn) [CHLORPHENIRAMINE]
- FC [3]: 1
- fold change (FC) [4]: 33.6
- FC [5]: 1

Structure (SMILES): OC(CCN1CCCCC1)(c1ccccc1)C1CC2C=CC1C2 (stereo not drawn) [BIPERIDEN]
- fold change (FC) [6]: 3.6
- fold change (FC) [7]: 1.6

Structure (SMILES): Cl.Nc1ccc(/N=N/c2ccccc2)c(N)n1 [PHENAZOPYRIDINE HYDROCHLORIDE]
- fold change (FC) [8]: 17
- fold change (FC) [9]: 4.3
- FC [3]: 1

Structure (SMILES): CN(C)CCC(c1ccc(Br)cc1)c1ccccn1 (stereo not drawn) [BROMPHENIRAMINE]
- fold change (FC) [10]: 43
- FC [3]: 1
- fold change (FC) [11]: 2

Structure (SMILES): CNCCCN1c2ccccc2CCc2ccccc21 [DESIPRAMINE]
- fold change (FC) [12]: 0.7
- fold change (FC) [13]: 0.7
- fold change (FC) [14]: 0.7

Structure (SMILES): Cc1nc(-c2ccc(OCC(C)C)c(C#N)c2)sc1C(=O)O [FEBUXOSTAT]
- fold change (FC) [15]: 1.2
- FC [3]: 1
- fold change (FC) [16]: 2.1

Structure (SMILES): CC/C(=C(\c1ccccc1)c1ccc(OCCN(C)C)cc1)c1ccccc1 [TAMOXIFEN]
- fold change (FC) [17]: 0.8

Structure (SMILES): Cc1nc(C)c2c(n1)N(Cc1ccc(-c3ccccc3-c3nnn[nH]3)cc1)C(=O)CC2 [TASOSARTAN]
- fold change (FC) [18]: 52
- FC [3]: 1
- fold change (FC) [19]: 13.5

Structure (SMILES): N[C@@H]1[C@H]2CN(c3nc4c(cc3F)c(=O)c(C(=O)O)cn4-c3ccc(F)cc3F)C[C@@H]12 [TROVAFLOXACIN]
- fold change (FC) [20]: 1.1
- FC [3]: 1
- FC [5]: 1

Structure (SMILES): CNC(=C[N+](=O)[O-])NCCSCc1ccc(CN(C)C)o1 [RANITIDINE]
- fold change (FC) [21]: 3.3
- fold change (FC) [22]: 3.8
- FC [3]: 1

Structure (SMILES): O=C(COc1ccc(Cl)cc1)N1CCN(Cc2ccc3c(c2)OCO3)CC1 [FIPEXIDE]
- FC [3]: 0.4
- fold change (FC) [23]: 0.8
- fold change (FC) [24]: 0.6

Structure (SMILES): Clc1ccccc1C(c1ccccc1)(c1ccccc1)n1ccnc1 [CLOTRIMAZOLE]
- fold change (FC) [25]: 1.1
- fold change (FC) [26]: 0.9

Structure (SMILES): CNCCC(Oc1ccc(C(F)(F)F)cc1)c1ccccc1 (stereo not drawn) [FLUOXETINE]
- fold change (FC) [27]: 0.6
- fold change (FC) [28]: 0.7
- fold change (FC) [29]: 0.7

Structure (SMILES): C=C(CC)C(=O)c1ccc(OCC(=O)O)c(Cl)c1Cl [ETHACRYNIC ACID]
- fold change (FC) [30]: 2.7
- fold change (FC) [31]: 0.7
- FC [32]: 3.7

Structure (SMILES): O=c1n(CCCN2CCN(c3cccc(Cl)c3)CC2)nc2ccccn12 [TRAZODONE]
- fold change (FC) [33]: 23.2
- FC [3]: 1
- fold change (FC) [34]: 34.4

Structure (SMILES): Nc1nc(O)c2ncn(COC(CO)CO)c2n1 [GANCICLOVIR]
- FC [3]: 1
- FC [35]: 1
- FC [5]: 1

Structure (SMILES): CC(C)OC(=O)C(C)(C)Oc1ccc(C(=O)c2ccc(Cl)cc2)cc1 [FENOFIBRATE]
- fold change (FC) [12]: 0.8
- fold change (FC) [36]: 0.5
- fold change (FC) [37]: 2.9

Structure (SMILES): NNC(=O)c1ccncc1 [ISONIAZID]
- FC [3]: 1
- FC [35]: 1
- FC [5]: 1

Structure (SMILES): O=C(O)CCCCCCNC1c2ccccc2CCc2ccccc21 [AMINEPTINE]
- FC [3]: 1
- FC [35]: 1
- FC [5]: 1

Structure (SMILES): Clc1cccc(Cl)c1N=C1NCCN1 [CLONIDINE]
- FC [3]: 1
- FC [35]: 1
- FC [5]: 1

Structure (SMILES): CC(CCc1ccccc1)NCC(O)c1ccc(O)c(C(N)=O)c1 (stereo not drawn) [LABETALOL]
- FC [3]: 1
- FC [35]: 1
- fold change (FC) [38]: 46

Structure (SMILES): Cc1cn([C@H]2C[C@H](N=[N+]=[N-])[C@@H](CO)O2)c(=O)[nH]c1=O [ZIDOVUDINE]
- FC [3]: 1
- FC [35]: 1
- FC [5]: 1

Structure (SMILES): CC(C)NNC(=O)c1ccncc1 [IPRONIAZID]
- fold change (FC) [39]: 2.2
- fold change (FC) [40]: 2.6
- FC [3]: 1

Structure (SMILES): NC(=O)c1cnccn1 [PYRAZINAMIDE]
- FC [3]: 1
- FC [35]: 1
- FC [5]: 1

Structure (SMILES): Nc1ccn([C@@H]2CS[C@H](CO)O2)c(=O)n1 [LAMIVUDINE]
- FC [3]: 1
- FC [35]: 1
- FC [5]: 1
